The values that follow are results of earlier work, collected in publication PMC9729070 (Bioorganic & medicinal chemistry letters, 2022).

SMILES strings stand for the structures.

The conditions of data set [1]: Phase I clinical trials.
The conditions of data set [2]: CRPC patients.

`O=C(Nc1ccc([N+](=O)[O-])cc1Cl)c1cc(Cl)ccc1O` [Niclosamide (1), Niclosamide]: the bioavailability result in data set [1] is “unacceptable bioavailability”.

`CNC(=O)c1ccc(N2C(=S)N(c3ccc(C#N)c(C(F)(F)F)c3)C(=O)C2(C)C)cc1F` [enzalutamide (Xtandi), enzalutamide]: the survival time prolongation result in data set [2] was “five”.
